From ChEMBL document CHEMBL5046270, “A Selective and Orally Bioavailable Quinoline-6-Carbonitrile-Based Inhibitor of CDK8/19 Mediator Kinase with Tumor-Enriched Pharmacokinetics” (J Med Chem, 2022)
Calls of active or inactive are those of the source. The rule behind the calls is not given here.

Columns and labels:
[1] = Inhibition of CDK8/CDK19 in MV4-11 cells and measured after 7 days by Spectra max iD5 microplate reader; type: cell-based, Homo sapiens
[2] = biological target: CDK8/Cyclin C (Homo sapiens, UniProt P49336); experiment: Inhibition of kinase tracer 236 binding to His tagged recombinant human CDK8/cyclin C incubated for 60 min FRET based LanthaScreen Eu-Kinase binding assay; type: protein-complex assay
[3] = Inhibition of NF kappa B dependent CDK8/CDK19 in HEK293 cell incubated for 3 hrs in presence of TNF-alpha by Spectra max microtitre plate reader; type: cell-based; settings: Homo sapiens, HEK293, 3 h
[4] = biological target: T1, Cyclin-C/Cyclin-dependent kinase 19 (Homo sapiens) (UniProt Q9BWU1+P24863); experiment: Binding affinity to recombinant human CDK19/cyclinC assessed as rate constant (koff) by TR FRET based assay; type: protein-complex assay
[5] = biological target: T2, CDK8/Cyclin C (Homo sapiens) (UniProt P49336+P24863); experiment: Binding affinity to kinase tracer 236 binding to His tagged recombinant human CDK8/cyclinC assessed as rate constant (koff) by TR FRET based assay; type: protein-complex assay
[6] = biological target: T2, CDK8/Cyclin C (Homo sapiens); experiment: Binding affinity to kinase tracer 236 binding to His tagged recombinant human CDK8/cyclinC assessed as rate constant (kon) by TR FRET based assay; type: protein-complex assay
[7] = test system: HEK293; experiment: Downregulation of CDK8/19 in HEK293 cells assessed as reversal of mRNA expression level in MYC gene at 1 uM for 3 hr pretreatment and measured after 3 hr post wash-off by qt-PCR analysis; type: functional, cell-based; settings: Homo sapiens, time 6.0 hrs
[8] = biological target: T1, Cyclin-C/Cyclin-dependent kinase 19 (Homo sapiens); experiment: Binding affinity to recombinant human CDK19/cyclinC assessed as rate constant (kon) by TR FRET based assay; type: protein-complex assay
[9] = biological target: T2, CDK8/Cyclin C (Homo sapiens); experiment: Binding affinity to kinase tracer 236 binding to His tagged recombinant human CDK8/cyclinC assessed as half life by TR FRET based assay; type: protein-complex assay
[10] = biological target: T1, Cyclin-C/Cyclin-dependent kinase 19 (Homo sapiens); experiment: Binding affinity to recombinant human CDK19/cyclinC assessed as half life by TR FRET based assay; type: protein-complex assay
[11] = biological target: T2, CDK8/Cyclin C (Homo sapiens); experiment: Binding affinity to kinase tracer 236 binding to His tagged recombinant human CDK8/cyclinC assessed as mean residence time by TR FRET based assay; type: protein-complex assay
[12] = biological target: T1, Cyclin-C/Cyclin-dependent kinase 19 (Homo sapiens); experiment: Binding affinity to recombinant human CDK19/cyclinC assessed as mean residence time by TR FRET based assay; type: protein-complex assay
[13] = test system: HEK293; experiment: Downregulation of CDK8/19 in HEK293 cells assessed as reversal of mRNA expression level in KCTD12 gene at 1 uM for 3 hr pretreatment and measured after 3 hr post wash-off by qt-PCR analysis; type: functional, cell-based; settings: Homo sapiens, time 6.0 hrs
[14] = Metabolic stability in human hepatocyte assessed as intrinsic clearance at 2 uM measured per 10^6 by LC-MS/MS analysis; type: ADME, cell-based; settings: hepatocytes

Sequence of CDK8/Cyclin C (P49336 whole entry): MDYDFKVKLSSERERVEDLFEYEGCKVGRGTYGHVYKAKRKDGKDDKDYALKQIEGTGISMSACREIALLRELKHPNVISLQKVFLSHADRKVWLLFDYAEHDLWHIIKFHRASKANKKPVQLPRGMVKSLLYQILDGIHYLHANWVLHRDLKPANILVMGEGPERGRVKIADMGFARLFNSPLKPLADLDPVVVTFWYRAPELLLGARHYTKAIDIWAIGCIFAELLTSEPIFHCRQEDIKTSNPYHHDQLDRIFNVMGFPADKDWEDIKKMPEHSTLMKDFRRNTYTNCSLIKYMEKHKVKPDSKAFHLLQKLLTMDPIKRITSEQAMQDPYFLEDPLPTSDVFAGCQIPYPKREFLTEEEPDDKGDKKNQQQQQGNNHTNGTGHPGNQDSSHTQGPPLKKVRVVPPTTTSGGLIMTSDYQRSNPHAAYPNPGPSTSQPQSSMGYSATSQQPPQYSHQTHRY
Sequence of CDK8/Cyclin C (P24863 whole entry, further chain): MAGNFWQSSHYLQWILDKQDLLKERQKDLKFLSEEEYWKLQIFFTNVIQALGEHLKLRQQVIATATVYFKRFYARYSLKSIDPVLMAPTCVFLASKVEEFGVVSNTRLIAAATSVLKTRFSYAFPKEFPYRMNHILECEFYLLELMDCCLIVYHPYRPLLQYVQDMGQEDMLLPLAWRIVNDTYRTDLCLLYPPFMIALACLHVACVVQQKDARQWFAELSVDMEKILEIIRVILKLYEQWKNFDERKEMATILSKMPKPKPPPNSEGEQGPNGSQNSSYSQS

Structure (SMILES) | IC50 [1] [nM] | IC50 [2] [nM] | IC50 [3] [nM] | further results
CC(C)(C)OC(=O)NCCCN1CCN(C(=O)c2ccc3cc(CCNc4ccnc5ccc(C#N)cc45)ccc3c2)CC1 | 167 | 8.1 | 81 | –
CC(=O)N1CCN(C(=O)c2ccc3cc(CCNc4ccnc5ccc(C#N)cc45)ccc3c2)CC1 | 297 | 12 | 184 | –
NC(=O)c1ccc2nccc(NCCc3ccccc3)c2c1 | – | > 1000 | > 5000 | –
CN(CCCN)C(=O)c1ccc2cc(CCNc3ccnc4ccc(C#N)cc34)ccc2c1 | 297 | 9.2 | 118 | –
CN1CCN(C(=O)c2ccc3cc(CCNc4ncnc5ccc(C#N)cc45)ccc3c2)CC1 [SENEXIN B] | – | – | – | K [4]: 0.00628 s⁻¹; K [5]: 0.00325 s⁻¹; K [6]: 1.65 10^6/M/s; Activity [7]: inactive; K [8]: 2.13 10^6/M/s; T1/2 [9]: 3.55 min; T1/2 [10]: 1.84 min; MRT [11]: 5.13 min; MRT [12]: 2.65 min; Activity [13]: inactive; CLH [14]: 0.0198 mL/min
N#Cc1ccc2nccc(NCCc3ccc4cc(C(=O)N5CCS(=N)(=O)CC5)ccc4c3)c2c1 | 271 | 4.6 | 244 | –
CNC(=O)c1ccc2nccc(NCCc3ccccc3)c2c1 | – | > 1000 | > 5000 | –
Ic1ccc2nccc(NCCc3ccccc3)c2c1 | – | 212 | > 5000 | –
Nc1ccc2nccc(NCCc3ccccc3)c2c1 | – | > 1000 | > 5000 | –
FC(F)(F)c1ccc2nccc(NCCc3ccccc3)c2c1 | – | 356 | > 5000 | –
N#Cc1ccc2ncnc(NCCc3ccccc3)c2c1 | 994 | 35 | 349 | –
N#Cc1ccc2nccc(NCCc3ccc4cc(C(=O)N5CCSCC5)ccc4c3)c2c1 | 93 | 9.1 | 138 | –

Now from value to molecule, other results behind:

IC50 [1] [nM] | IC50 [2] [nM] | IC50 [3] [nM] | Structure (SMILES) | further results
209 | 19 | 137 | CC(C)(C)OC(=O)N1CCN(C(=O)c2ccc3cc(CCNc4ccnc5ccc(C#N)cc45)ccc3c2)CC1 | –
– | > 1000 | > 5000 | c1ccc(CCNc2ccnc3ccccc23)cc1 | –
222 | 5.8 | 160 | N#Cc1ccc2nccc(NCCc3ccc4cc(C(=O)N5CC[S+]([O-])CC5)ccc4c3)c2c1 | –
305 | 6.5 | 870 | N#Cc1ccc2nccc(NCCc3ccc4cc(C(=O)N5CCN(CCCN)CC5)ccc4c3)c2c1 | –
– | 183 | > 5000 | Brc1ccc2nccc(NCCc3ccccc3)c2c1 | –
– | 44 | > 5000 | Clc1ccc2nccc(NCCc3ccccc3)c2c1 | –
173 | 9.3 | 208 | CN(CCCNC(=O)OC(C)(C)C)C(=O)c1ccc2cc(CCNc3ccnc4ccc(C#N)cc34)ccc2c1 | –
